Results from patent publication US9464326B2, “Total and phosphorylated IL-1 receptor-associated kinase-1 and IL-1 receptor-associated kinase-4 as a biomarker for cancer progression and chemotherapy resistance” (University of Maryland, Baltimore, priority 2012, dated 2016).

How the values were obtained:
melanoma cells = assay: Western blot of phosphorylated NF-KB; type: cell-based, human; settings: 48 hrs, vs DMSO, FIG. 7C
Procedure: FIG. 7. TLR and TLR signaling-related protein expression profiles on melanoma cell lines. (A) The expression levels of TLR1-TLR10 and various TLR-related proteins were examined by Western blot in samples from human melanoma cell lines. (B) The TLR1-TLR2 ligand Pam3CysK4 was added to A375 cells for 48 hrs. Cytokine and chemokine production by was determined using a Milliplex cytokine/chemokine array. (C) IRAK-1,-4 inhibitor or vehicle alone (DMSO) was added to melanoma cells for 48 hrs. The level of phosphorylated and non-phosphorylated p65 subunit of NF-KB was determined by Western blot. (D) Cytokine and chemokine levels in the supernatant A375 cell culture were examined using a Milliplex cytokine/chemokine array 48 hours after adding IRAK-1,-4 inhibitor or DMSO. ANOVA; **P<0.001, *P<0.05.
Total cell extracts were prepared from melanoma cells. […] Melanoma tissue arrays were purchased from US Biomax, Inc (Rockville, Md.). For immunohistochemical staining samples were stained with mouse monoclonal anti-human phosphor-IRAK.-4 antibody (Abnova; dilution, 3.5 μg/ml) or normal mouse serum. […] IHC specimens were analyzed using “quick score” system in which the intensity of the immunohistochemical reaction was scored by multiplying the intensity 1 (weak), 2 (moderate), and 3 (strong) and the proportion of cells staining positively 0 (<10%), 1 (10-25%), 2 (26-50%), 3 (51-75%) or 4 (>75%).

IRAK-4 = IRAK-4 (Homo sapiens, UniProt Q9NWZ3); settings: supplier (EMD Millipore) description; cited from earlier work
CEM-C1 = assay: Proliferation (3H-thymidine) of CEM-C1; type: cell-based, human
Description: (§1) CCRF-CEM, CEM/C1, CEM/C2, CEM-C7, Jurkat, Loucy, Molt-4, HSB-2, SUP-T1, Hut 78, HH, Hut 102, MO, and H9 T-leukemia and T-lymphoma cell lines were purchased from the American Type Culture Collection (Manassas, Va., USA). All of the cell lines were initially expanded and cryopreserved within one month of receipt. Cells were typically used for 6 months at which time a fresh vial of cryopreserved cells was used. Total T cells from healthy donors were isolated via negative selection followed by positive selection using a CD3+ selection kit (Invitrogen, Carlsbad, Calif.). T cells were isolated from patients with T-ALL bone marrow or peripheral blood samples containing more than 70% leukemia cells using a CD2+ isolation kit (STEMCELL Technologies, Vancouver, Canada). All tissues were collected under institutional IRB-approved protocols and all participants gave written informed assent/consent. For in vitro experiments, T-ALL cells were cultured in AIM-V medium supplemented with 20% human AB serum in the presence of recombinant human stem cell factor (50 ng/mL; Amgen, Thousand Oaks, Calif.), insulin (20 nM; Sigma-Aldrich, St Louis, Mo., USA) and IL-7 (50 ng/mL; R&D Systems, Minneapolis, Minn., USA). In other experiments, protein lysate was collected using the Full Moon Biosystems (Sunnyvale, Calif., USA) buffer prior to protein examination by western blot or protein array.
(§2) Cells were cultured in a 96-well plate (Corning Costar, Corning, N.Y., USA) with various concentrations of TLR ligands 1-9, starting at 10 μg/ml, in a final volume of 200 ul. TLR ligands were diluted 2-fold. Cell lines (25-40×10^3/well) were cultured for 54 hours, whereas fresh patient-derived T-ALL cells (200×10^3/well) were cultured for 30 hours prior to adding [^3H]-thymidine for 18 hours. After this time point, cells were harvested with a Packard Filter-Mate-96 cell harvester (Perkin Elmer, Waltham, Mass., USA) and counted on Packard Top Count-NXT (Perkin Elmer, Waltham, Mass., USA). Results were expressed as average counts per minute (cpm). In some experiments CCRF-CEM cells were pre-treated with TLR1-TLR2 ligand (Pam3CysK4; 2.5 ug/ml) for 48 hrs, washed, and then cultured in the presence of varying concentrations of FBS. Forty-eight hours later, proliferation (±SD) was determined by ^3H-thymidine incorporation. Alternatively, apoptosis was measured by flow cytometry after staining cells with Annexin-V (BD Pharmingen, San Diego, Calif., USA) and propidium iodide (Sigma). Cell number was counted under microscopy by staining cells with trypan blue. […]

Molt-4 = assay: Proliferation (3H-thymidine) of Molt-4; type: cell-based, human; settings: 3H-thymidine uptake, 72 h
Description: as §1, with “In other experiments, protein lysate was collected using the Full Moon Biosystems (Sunnyvale, Calif., USA) buffer prior to protein examination by western blot or protein array.” left out
as §2, with “TLR ligands were diluted 2-fold. Cell lines (25-40×10^3/well) were cultured for 54 hours, whereas fresh patient-derived T-ALL cells (200×10^3/well) were cultured for 30 hours prior to adding [^3H]-thymidine for 18 hours.” left out, “In some experiments CCRF-CEM cells were pre-treated with TLR1-TLR2 ligand (Pam3CysK4; 2.5 ug/ml) for 48 hrs, washed, and then cultured in the presence of varying concentrations of FBS.” left out

HSB-2 = assay: Proliferation (3H-thymidine) of HSB-2; type: cell-based, human
Description: as §1
Cells were cultured in a 96-well plate (Corning Costar, Corning, N.Y., USA) with various concentrations of TLR ligands 1-9, starting at 10 μg/ml, in a final volume of 200 ul. TLR ligands were diluted 2-fold. Cell lines (25-40×10^3/well) were cultured for 54 hours, whereas fresh patient-derived T-ALL cells (200×10^3/well) were cultured for 30 hours prior to adding [^3H]-thymidine for 18 hours. After this time point, cells were harvested with a Packard Filter-Mate-96 cell harvester (Perkin Elmer, Waltham, Mass., USA) and counted on Packard Top Count-NXT (Perkin Elmer, Waltham, Mass., USA). Results were expressed as average counts per minute (cpm). In some experiments CCRF-CEM cells were pre-treated with TLR1-TLR2 ligand (Pam3CysK4; 2.5 ug/ml) for 48 hrs, washed, and then cultured in the presence of varying concentrations of FBS. Forty-eight hours later, proliferation (±SD) was determined by ^3H-thymidine incorporation. Alternatively, apoptosis was measured by flow cytometry after staining cells with Annexin-V (BD Pharmingen, San Diego, Calif., USA) and propidium iodide (Sigma). Cell number was counted under microscopy by staining cells with trypan blue.
The following TLR ligands were purchased from Invivogen (San Diego, Calif., USA): tripalmitoyl-S-(bis(palmitoyloxy)propyl)-Cys-Ser-(Lys)3-Lys (TLR1-2); Poly I:C (TLR3); ultrapure S. Minnesota Lipopolysaccharide (TLR4); S. typhimurium flagellin (TLR5); FSL-1 (TLR2/6); Imiquimod (TLR7); ssRNA40/Lyovec (TLR8); CpG-ODN 2006 (TLR9).

A375 cells = assay: Western blot of IRAK phosphorylation in A375; type: cell-based, human; settings: Pam3CysK4 2.5 μg/ml or flagellin 100 ng/ml, 48 hours, FIG. 22B
Procedure: FIG. 22. Effects of TLR stimulation and cytokines on IRAK phosphorylation in melanoma cells. (A) A375 cells were cultured in the presence of anti-IL-18, anti-CXCL-1, (R&D Systems), anti-IL-1 (BioLegend), or mouse IgG (Sigma-Aldrich) all at 10 μg/ml. Forty-eight hours later the levels of the indicated proteins were determined by western blot. (B) A375 cells, which express p-IRAK-1 and p-IRAK-4, and G361 melanoma cells, which express very low levels of p-IRAK-1 (and express TLR5) were cultured in the presence of TLR1-TLR2 agonist (Pam3CysK4; 2.5 μg/ml) or TLR5 (flagellin; 100 ng/ml; InVivogen). Forty-eight hours later total protein was collected and the levels of the indicated proteins were examined by western blot.
Total cell extracts were prepared from melanoma cells. […] Melanoma tissue arrays were purchased from US Biomax, Inc (Rockville, Md.). For immunohistochemical staining samples were stained with mouse monoclonal anti-human phosphor-IRAK.-4 antibody (Abnova; dilution, 3.5 μg/ml) or normal mouse serum. Tissue histology sections (5-μm-thick) were deparaffinized, hydrated, heated in boiling 10 mmol/L sodium citrate (pH 6.0), for antigen retrieval, for 30 min and washed in Tris buffer. Peroxide blocking was done with 3% […] in methanol at room temperature for 15 min, followed by 10% fetal bovine serum in TBS-t for 30 min at room temperature. Primary antibody incubation was done overnight at 4° C. Secondary antibody incubation with horse anti-mouse (1:200; Vector Laboratories, Burlingame, Calif.) was done for 1 hr, followed by application of diaminobenzidine chromogen for 5 min. The slides were then counterstained with hematoxylin and topped with a coverslip. IHC specimens were analyzed using “quick score” system in which the intensity of the immunohistochemical reaction was scored by multiplying the intensity 1 (weak), 2 (moderate), and 3 (strong) and the proportion of cells staining positively 0 (<10%), 1 (10-25%), 2 (26-50%), 3 (51-75%) or 4 (>75%).

Chain of IRAK-4 (Q9NWZ3 whole entry): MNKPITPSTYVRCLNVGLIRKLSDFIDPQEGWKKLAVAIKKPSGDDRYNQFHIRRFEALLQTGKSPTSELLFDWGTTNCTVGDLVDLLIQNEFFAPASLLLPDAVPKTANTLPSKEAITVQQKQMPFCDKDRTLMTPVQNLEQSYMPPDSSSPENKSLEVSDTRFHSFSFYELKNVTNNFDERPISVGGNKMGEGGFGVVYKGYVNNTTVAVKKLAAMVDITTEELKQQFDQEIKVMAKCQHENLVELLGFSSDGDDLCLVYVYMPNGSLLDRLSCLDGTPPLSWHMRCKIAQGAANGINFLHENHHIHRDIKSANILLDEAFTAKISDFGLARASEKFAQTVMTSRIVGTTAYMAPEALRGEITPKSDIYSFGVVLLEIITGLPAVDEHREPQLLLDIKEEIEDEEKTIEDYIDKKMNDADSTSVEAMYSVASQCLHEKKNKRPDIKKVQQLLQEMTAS

| Molecule | phosphorylated NF-KB (p-NF-KB) (melanoma cells) | inhibition of IRAK-4 (IRAK-4) | Proliferative effects of TLR ligands (CEM-C1; 3H-thymidine uptake, 72 h) | TLR ligand concentration in parentheses below the symbol (CEM-C1; no unit in table (μg/ml)) | Proliferative effects of TLR ligands (Molt-4) | Proliferative effects of TLR ligands (HSB-2; 3H-thymidine uptake, 72 h) | TLR ligand concentration in parentheses below the symbol (HSB-2; no unit in table (μg/ml)) | p-IRAK-1 or p-IRAK-4 expression levels (A375 cells) |
| --- | --- | --- | --- | --- | --- | --- | --- | --- |
| O=C(Nc1nc2ccccc2n1CCN1CCOCC1)c1cccc([N+](=O)[O-])c1 [IRAK-1,-4 inhibitor] | marked reduction | selectively inhibits |  |  |  |  |  |  |
| tripalmitoyl-S-(bis(palmitoyloxy)propyl)-Cys-Ser-(Lys)3-Lys [Pam3Cysk4] |  |  | + (enhanced proliferation by 25% or greater) | (2.5) | ∘ | − (reduced proliferation) | (5) | remained unchanged |
